Assay results published in patent publication US8318697B2, “Prophylactic and therapeutic treatment of infectious and other diseases with mono- and disaccharide-based compounds” (Corixa Corporation, priority 2000, dated 2012).
Where “and” joins values, the source holds several entries; their conditions need not be identical. Identical values can stand only once. Like-named read-outs stand apart in the source and are kept apart here.

How the values were obtained:
human whole blood = type: cell-based; settings: for cytokine stimulation in human whole blood cultures: overnight culture
[1] = system: Ogawa P. gingivalis LPS stimulated whole blood cells; assay: Inhibition of LPS-induced cytokines in whole blood; type: cell-based, human; settings: 10, 5, 2.5 ug/mL
From the text: Table 4 provides the maximum levels of IL-4, IL-2 and IL-5 obtained, as well as ratios of TNF to IL-10, and ratios of IL-10 to TNF. Inhibition data for IL-8, reported as a percentage, are also provided on the right hand side of Table 4. For example, 90% inhibition would calculate to a 90% reduction of cytokine levels. MIP-1β results were similar. […]

[2] = system: L. monocytogenes 10403 serotype; assay: Murine Listeria monocytogenes challenge model; type: in vivo, Mice; settings: 1 μg intravenously in 0.2% TEOA, challenge two days later; FIGS. 14-17
Method: This example provides experiments evaluating the induction of non-specific resistance in the murine Listeria monocytogenes challenge model performed using various AGPs and MPL. Mice (5 per group) were treated intravenously with the 1 μg of an AGP or MPL solubilized in 0.2% TEOA. Two days later the mice were challenged intravenously with a ˜10^5 L. monocytogenes 10403 serotype (provided by M. L. Gray, Montana State University, Bozeman, Mont.). Two days after the challenge, the mice were sacrificed and the number of colony forming units (CFUs) in the spleens of individual mice were determined by plating 10-fold serial dilutions of splenic homogenates on tryptic soy agar plates. The degree of protection afforded by a given AGP or MPL was calculated by subtracting the average number of bacteria per spleen (log 10 value) in the group of mice treated with a given compound, from the average number of bacteria per spleen (log 10 value) in a control group that was “sham” treated with vehicle (0.2% TEOA) prior to challenge with L. monocytogenes.

CCCCCCCCCCCCCC(=O)O[C@H](CCCCCCCCCCC)CC(=O)N[C@H]1[C@H](OC[C@H](NC(=O)C[C@@H](CCCCCCCCCCC)OC(=O)CCCCCCCCCCCCC)C(=O)O)O[C@H](CO)[C@@H](OP(=O)(O)O)[C@@H]1OC(=O)C[C@@H](CCCCCCCCCCC)OC(=O)CCCCCCCCCCCCC.CCN(CC)CC [RC-512]
IL-1β cba2 (human whole blood; donor 1): 3230
IL10/TNFα cba (human whole blood; donor 2, ratio of IL-10 to TNF): 0.4
TNFα/IL10 cba (human whole blood; donor 2, ratio of TNF to IL-10): 3.9
% inhib. LPS IL-8 [1]: −1%

CCCCCCCCCCC[C@H](CC(=O)N[C@H]1[C@H](OC[C@H](NC(=O)C[C@@H](CCCCCCCCCCC)OC(=O)CCCCCCCCCC)C(=O)O)O[C@H](CO)[C@@H](OP(=O)(O)O)[C@@H]1OC(=O)C[C@@H](CCCCCCCCCCC)OC(=O)CCCCCCCCCC)OC(=O)CCCCCCCCCC.CCN(CC)CC [RC-538]
IL10/TNFα cba (human whole blood): 0.5 and 0.3
IL-1β cba2 (human whole blood): 7767
TNFα/IL10 cba (human whole blood): 2.3 and 4
% inhib. LPS IL-8 [1]: −3%

CCCCCCCCCCC[C@H](CC(=O)N[C@H]1[C@H](OC[C@H](NC(=O)C[C@@H](CCCCCCCCCCC)OC(=O)CCCCC)C(=O)O)O[C@H](CO)[C@@H](OP(=O)(O)O)[C@@H]1OC(=O)C[C@@H](CCCCCCCCCCC)OC(=O)CCCCC)OC(=O)CCCCCCCCC.CCN(CC)CC [RC-568]
cytokine stimulation in human whole blood cultures (human whole blood): little if any cytokine stimulation
% inhib. LPS IL-8 [1]: 96%

CCCCCCCCCCCC(=O)O[C@H](CCCCCCCCCCC)CC(=O)N[C@H]1[C@H](OC[C@H](NC(=O)C[C@@H](CCCCCCCCCCC)OC(=O)CCCCCCCCCCC)C(=O)O)O[C@H](CO)[C@@H](OP(=O)(O)O)[C@@H]1OC(=O)C[C@@H](CCCCCCCCCCC)OC(=O)CCCCCCCCCCC.CCN(CC)CC [RC-560]
IL-1β cba2 (human whole blood): 5833
% inhib. LPS IL-8 [1]: −1%

CCCCCCCCCCC[C@H](CC(=O)N[C@H]1[C@H](OC[C@H](NC(=O)C[C@@H](CCCCCCCCCCC)OC(=O)CCCCCCCCC)C(=O)O)O[C@H](CO)[C@@H](OP(=O)(O)O)[C@@H]1OC(=O)C[C@@H](CCCCCCCCCCC)OC(=O)CCCCC)OC(=O)CCCCCCCCC.CCN(CC)CC [RC-566]
cytokine stimulation in human whole blood cultures (human whole blood): little if any cytokine stimulation
% inhib. LPS IL-8 [1]: 93%

CCCCCCCCCCC[C@H](CC(=O)N[C@H]1[C@H](OC[C@H](NC(=O)C[C@@H](CCCCCCCCCCC)OC(=O)CCCCCCCC)C(=O)O)O[C@H](CO)[C@@H](OP(=O)(O)O)[C@@H]1OC(=O)C[C@@H](CCCCCCCCCCC)OC(=O)CCCCCCCC)OC(=O)CCCCCCCC.CCN(CC)CC [RC-537]
IL-1β cba2 (human whole blood): 8353
% inhib. LPS IL-8 [1]: 33%

CCCCCCCCCCCCCC(=O)O[C@H](CCCCCCCCCCC)CC(=O)NCCCO[C@@H]1O[C@H](CO)[C@@H](OP(=O)(O)O)[C@H](OC(=O)C[C@@H](CCCCCCCCCCC)OC(=O)CCCCCCCCCCCCC)[C@H]1NC(=O)C[C@@H](CCCCCCCCCCC)OC(=O)CCCCCCCCCCCCC.CCN(CC)CC [RC-525]
IL10/TNFα cba (human whole blood; donor 1, ratio of IL-10 to TNF): 3.7
TNFα/IL10 cba (human whole blood; donor 1, ratio of TNF to IL-10): 1.8
IL10/TNFα cba (human whole blood; donor 2, ratio of IL-10 to TNF): 0.7
TNFα/IL10 cba (human whole blood; donor 2, ratio of TNF to IL-10): 1.2

CCCCCCCCCCC[C@H](CC(=O)N[C@H]1[C@H](OC[C@H](NC(=O)C[C@@H](CCCCCCCCCCC)OC(=O)CCCCCCC)C(=O)O)O[C@H](CO)[C@@H](OP(=O)(O)O)[C@@H]1OC(=O)C[C@@H](CCCCCCCCCCC)OC(=O)CCCCCCC)OC(=O)CCCCCCC.CCN(CC)CC [RC-555]
IL-1β cba2 (human whole blood; donor 1): 519
IL10/TNFα cba (human whole blood; donor 2, ratio of IL-10 to TNF): 1.2
TNFα/IL10 cba (human whole blood; donor 2, ratio of TNF to IL-10): 0.8
cytokine stimulation in human whole blood cultures (human whole blood): little if any cytokine stimulation
% inhib. LPS IL-8 [1]: 99%

CCCCCCCCCCCCCC(=O)O[C@H](CCCCCCCCCCC)CC(=O)NCCCCCCO[C@@H]1O[C@H](CO)[C@@H](OP(=O)(O)O)[C@H](OC(=O)C[C@@H](CCCCCCCCCCC)OC(=O)CCCCCCCCCCCCC)[C@H]1NC(=O)C[C@@H](CCCCCCCCCCC)OC(=O)CCCCCCCCCCCCC.CCN(CC)CC [RC-571]
IL10/TNFα cba (human whole blood; donor 1, ratio of IL-10 to TNF): 8.6
TNFα/IL10 cba (human whole blood; donor 1, ratio of TNF to IL-10): 0.5

CCCCCCCCCCC[C@H](CC(=O)N[C@@H](CCO)CO[C@@H]1O[C@H](CO)[C@@H](OP(=O)(O)O)[C@H](OC(=O)C[C@@H](CCCCCCCCCCC)OC(=O)CCCCCCCCC)[C@H]1NC(=O)C[C@@H](CCCCCCCCCCC)OC(=O)CCCCCCCCC)OC(=O)CCCCCCCCC.CCN(CC)CC [RC-541]
protection against L. monocytogenes challenge (reduction of log 10 bacteria per spleen vs vehicle) [2]: protection that was equal to or greater than that provided by MPL

CCCCCCCCCCCCCC(=O)O[C@H](CCCCCCCCCCC)CC(=O)NCCCCO[C@@H]1O[C@H](CO)[C@@H](OP(=O)(O)O)[C@H](OC(=O)C[C@@H](CCCCCCCCCCC)OC(=O)CCCCCCCCCCCCC)[C@H]1NC(=O)C[C@@H](CCCCCCCCCCC)OC(=O)CCCCCCCCCCCCC.CCN(CC)CC [RC-557]
IL10/TNFα cba (human whole blood; donor 1, ratio of IL-10 to TNF): 0.6
TNFα/IL10 cba (human whole blood; donor 1, ratio of TNF to IL-10): 0.6
TNFα/IL10 cba (human whole blood; donor 2, ratio of TNF to IL-10): 0.5

CCCCCCCCCCC[C@H](CC(=O)N[C@H]1[C@H](OCCCN(CC(=O)O)C(=O)C[C@@H](CCCCCCCCCCC)OC(=O)CCCCCCCCC)O[C@H](CO)[C@@H](OP(=O)(O)O)[C@@H]1OC(=O)C[C@@H](CCCCCCCCCCC)OC(=O)CCCCCCCCC)OC(=O)CCCCCCCCC.CCN(CC)CC [RC-558]
protection against L. monocytogenes challenge (reduction of log 10 bacteria per spleen vs vehicle) [2]: protection that was equal to or greater than that provided by MPL

CCCCCCCCCCC[C@H](CC(=O)N[C@@H](CO)CO[C@@H]1O[C@H](CO)[C@@H](OP(=O)(O)O)[C@H](OC(=O)C[C@@H](CCCCCCCCCCC)OC(=O)CCCCCCCCC)[C@H]1NC(=O)C[C@@H](CCCCCCCCCCC)OC(=O)CCCCCCCCC)OC(=O)CCCCCCCCC.CCN(CC)CC [RC-545]
protection against L. monocytogenes challenge (reduction of log 10 bacteria per spleen vs vehicle) [2]: protection that was equal to or greater than that provided by MPL

CCCCCCCCCCC[C@H](CC(=O)N[C@H]1[C@H](OC[C@@H](NC(=O)C[C@@H](CCCCCCCCCCC)OC(=O)CCCCCCCCC)C(=O)O)O[C@H](CO)[C@@H](OP(=O)(O)O)[C@@H]1OC(=O)C[C@@H](CCCCCCCCCCC)OC(=O)CCCCCCCCC)OC(=O)CCCCCCCCC.CCN(CC)CC [RC-547]
protection against L. monocytogenes challenge (reduction of log 10 bacteria per spleen vs vehicle) [2]: protection that was equal to or greater than that provided by MPL

CCCCCCCCCCC[C@H](CC(=O)N[C@H]1[C@H](OC[C@H](NC(=O)C[C@@H](CCCCCCCCCCC)OC(=O)CCCCCCCCC)C(=O)O)O[C@H](CO)[C@@H](OP(=O)(O)O)[C@@H]1OC(=O)C[C@@H](CCCCCCCCCCC)OC(=O)CCCCC)OC(=O)CCCCC.CCN(CC)CC [RC-567]
cytokine stimulation in human whole blood cultures (human whole blood): little if any cytokine stimulation
% inhib. LPS IL-8 [1]: 100%

CCCCCCCCCCC[C@H](CC(=O)N[C@H]1[C@H](OC[C@H](NC(=O)C[C@@H](CCCCCCCCCCC)OC(=O)CCCCC)C(=O)O)O[C@H](CO)[C@@H](OP(=O)(O)O)[C@@H]1OC(=O)C[C@@H](CCCCCCCCCCC)OC(=O)CCCCCCCCC)OC(=O)CCCCC.CCN(CC)CC [RC-570]
cytokine stimulation in human whole blood cultures (human whole blood): little if any cytokine stimulation
% inhib. LPS IL-8 [1]: 100%

CCCCCCCCCCC[C@H](CC(=O)N[C@H]1[C@H](OC[C@H](NC(=O)C[C@@H](CCCCCCCCCCC)OC(=O)CCCCCC)C(=O)O)O[C@H](CO)[C@@H](OP(=O)(O)O)[C@@H]1OC(=O)C[C@@H](CCCCCCCCCCC)OC(=O)CCCCCC)OC(=O)CCCCCC.CCN(CC)CC [RC-554]
IL-1β cba2 (human whole blood; donor 1): 545
IL10/TNFα cba (human whole blood; donor 2, ratio of IL-10 to TNF): 1.1
TNFα/IL10 cba (human whole blood; donor 2, ratio of TNF to IL-10): 0.9
cytokine stimulation in human whole blood cultures (human whole blood): little if any cytokine stimulation
% inhib. LPS IL-8 [1]: 100%
